Columns and labels:
Type in all cases: cell-based
[1] = molecular target: proteins of HEK293T cells transiently overexpressing caspase-6 (Homo sapiens, UniProt O00571); conditions: exp_ref Probe; protein DDX3X (O00571); analysis C6
[2] = molecular target: T1, proteins of HEK293T cells transiently overexpressing caspase-6 (Homo sapiens, UniProt P04075); conditions: protein ALDOA (P04075)
T1 sequence (P04075 1-364): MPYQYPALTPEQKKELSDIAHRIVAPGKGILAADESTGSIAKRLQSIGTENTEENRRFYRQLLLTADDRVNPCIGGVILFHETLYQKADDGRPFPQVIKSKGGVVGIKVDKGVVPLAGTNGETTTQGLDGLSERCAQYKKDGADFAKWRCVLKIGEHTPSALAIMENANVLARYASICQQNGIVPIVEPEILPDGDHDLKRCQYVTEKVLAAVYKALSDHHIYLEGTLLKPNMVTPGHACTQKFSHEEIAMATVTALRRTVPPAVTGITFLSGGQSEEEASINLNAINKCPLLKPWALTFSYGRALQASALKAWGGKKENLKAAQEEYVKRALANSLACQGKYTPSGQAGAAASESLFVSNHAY

[3] = molecular target: proteins of HEK293T cells transiently overexpressing caspase-6 (Homo sapiens, UniProt P07195)
[4] = molecular target: proteins of HEK293T cells transiently overexpressing caspase-6 (Homo sapiens, UniProt P07737); conditions: exp_ref Probe; protein PFN1 (P07737); analysis C6
[5] = molecular target: proteins of HEK293T cells transiently overexpressing caspase-6 (Homo sapiens, UniProt P09211); conditions: exp_ref Probe; protein GSTP1 (P09211); analysis C6
[6] = molecular target: proteins of HEK293T cells transiently overexpressing caspase-6 (Homo sapiens, UniProt P26599); conditions: exp_ref Probe; protein PTBP1 (P26599); analysis C6
[7] = molecular target: proteins of HEK293T cells transiently overexpressing caspase-6 (Homo sapiens, UniProt P43034); conditions: Probe; protein PAFAH1B1 P43034
[8] = molecular target: proteins of HEK293T cells transiently overexpressing caspase-6 (Homo sapiens, UniProt P47756); conditions: Probe; protein CAPZB P47756
[9] = molecular target: proteins of HEK293T cells transiently overexpressing caspase-6 (Homo sapiens, UniProt P49411); conditions: exp_ref Probe; protein TUFM (P49411); analysis C6
[10] = molecular target: proteins of HEK293T cells transiently overexpressing caspase-6 (Homo sapiens, UniProt P53985); conditions: exp_ref Probe; protein SLC16A1 (P53985); analysis C6
[11] = molecular target: proteins of HEK293T cells transiently overexpressing caspase-6 (Homo sapiens, UniProt Q13148); conditions: protein TARDBP (Q13148); exp_ref Probe; analysis C6
[12] = molecular target: T2, proteins of HEK293T cells transiently overexpressing caspase-6 (Homo sapiens, UniProt Q13162)
T2 sequence (Q13162 38-271): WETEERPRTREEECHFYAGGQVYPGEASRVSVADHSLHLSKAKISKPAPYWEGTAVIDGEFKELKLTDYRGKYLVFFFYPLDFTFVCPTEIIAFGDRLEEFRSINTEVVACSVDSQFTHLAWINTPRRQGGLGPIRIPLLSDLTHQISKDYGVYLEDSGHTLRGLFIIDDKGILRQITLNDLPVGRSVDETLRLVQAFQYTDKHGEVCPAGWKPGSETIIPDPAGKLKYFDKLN

[13] = molecular target: proteins of HEK293T cells transiently overexpressing caspase-6 (Homo sapiens, UniProt Q8NBS9); conditions: exp_ref Probe; protein TXNDC5 (Q8NBS9); analysis C6
[14] = molecular target: proteins of HEK293T cells transiently overexpressing caspase-6 (Homo sapiens, UniProt Q96AE4); conditions: Probe; protein FUBP1 Q96AE4
[15] = molecular target: T3, proteins of HEK293T cells transiently overexpressing caspase-6 (Homo sapiens, UniProt Q99832); conditions: protein CCT7 (Q99832)
T3 sequence (Q99832 1-543): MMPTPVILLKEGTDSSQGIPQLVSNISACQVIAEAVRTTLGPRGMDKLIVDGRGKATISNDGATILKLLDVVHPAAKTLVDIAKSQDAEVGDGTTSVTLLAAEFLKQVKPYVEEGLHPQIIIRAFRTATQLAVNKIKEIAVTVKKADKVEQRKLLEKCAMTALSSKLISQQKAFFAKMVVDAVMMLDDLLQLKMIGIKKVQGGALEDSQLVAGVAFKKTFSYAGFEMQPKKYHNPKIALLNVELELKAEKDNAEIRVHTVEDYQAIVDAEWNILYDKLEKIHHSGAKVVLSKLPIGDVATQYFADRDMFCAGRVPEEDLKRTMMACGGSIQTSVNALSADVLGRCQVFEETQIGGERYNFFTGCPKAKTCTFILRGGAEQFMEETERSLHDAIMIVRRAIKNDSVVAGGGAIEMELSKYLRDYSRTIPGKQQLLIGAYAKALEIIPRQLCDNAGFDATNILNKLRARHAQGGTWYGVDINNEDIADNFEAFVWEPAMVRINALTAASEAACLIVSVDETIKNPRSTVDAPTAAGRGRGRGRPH

[16] = molecular target: proteins of HEK293T cells transiently overexpressing caspase-6 (Homo sapiens, UniProt Q9H3N1); conditions: protein TMX1 (Q9H3N1); exp_ref Probe; analysis C6
[17] = molecular target: proteins of HEK293T cells transiently overexpressing caspase-6 (Homo sapiens, UniProt Q9Y5B9); conditions: Probe; protein SUPT16H Q9Y5B9
proteins of HEK293T cells transiently overexpressing caspase-6 (Homo sapiens, UniProt Q9Y5B9), sequence (Q9Y5B9 whole entry): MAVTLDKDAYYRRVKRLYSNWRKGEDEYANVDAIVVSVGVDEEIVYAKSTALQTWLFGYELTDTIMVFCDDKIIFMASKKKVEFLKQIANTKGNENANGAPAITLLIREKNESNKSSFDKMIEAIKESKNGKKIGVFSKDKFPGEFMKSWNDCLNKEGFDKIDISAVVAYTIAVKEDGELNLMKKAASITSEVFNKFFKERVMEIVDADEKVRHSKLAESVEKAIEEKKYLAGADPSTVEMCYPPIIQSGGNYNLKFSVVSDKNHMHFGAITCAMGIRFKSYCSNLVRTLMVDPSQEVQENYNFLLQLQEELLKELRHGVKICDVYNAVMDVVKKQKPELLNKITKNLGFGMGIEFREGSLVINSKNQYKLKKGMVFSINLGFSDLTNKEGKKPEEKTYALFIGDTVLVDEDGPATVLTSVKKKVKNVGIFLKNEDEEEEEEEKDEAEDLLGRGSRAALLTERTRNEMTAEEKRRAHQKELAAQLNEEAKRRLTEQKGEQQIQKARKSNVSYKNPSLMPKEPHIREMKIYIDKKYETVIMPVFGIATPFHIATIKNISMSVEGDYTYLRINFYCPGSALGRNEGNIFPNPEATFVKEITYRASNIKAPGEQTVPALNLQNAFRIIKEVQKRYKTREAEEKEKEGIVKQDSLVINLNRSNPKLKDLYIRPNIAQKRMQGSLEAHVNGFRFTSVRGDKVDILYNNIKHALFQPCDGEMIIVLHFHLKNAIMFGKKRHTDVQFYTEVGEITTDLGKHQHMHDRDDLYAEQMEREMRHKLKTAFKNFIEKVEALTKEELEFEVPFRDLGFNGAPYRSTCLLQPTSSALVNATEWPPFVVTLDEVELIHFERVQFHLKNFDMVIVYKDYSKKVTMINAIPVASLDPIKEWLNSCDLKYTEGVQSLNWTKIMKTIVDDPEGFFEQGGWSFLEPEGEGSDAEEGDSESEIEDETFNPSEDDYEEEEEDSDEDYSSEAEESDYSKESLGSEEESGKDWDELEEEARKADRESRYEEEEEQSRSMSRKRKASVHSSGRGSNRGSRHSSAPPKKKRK

proteins of HEK293T cells transiently overexpressing caspase-6 (Homo sapiens, UniProt P07195), sequence (P07195 whole entry): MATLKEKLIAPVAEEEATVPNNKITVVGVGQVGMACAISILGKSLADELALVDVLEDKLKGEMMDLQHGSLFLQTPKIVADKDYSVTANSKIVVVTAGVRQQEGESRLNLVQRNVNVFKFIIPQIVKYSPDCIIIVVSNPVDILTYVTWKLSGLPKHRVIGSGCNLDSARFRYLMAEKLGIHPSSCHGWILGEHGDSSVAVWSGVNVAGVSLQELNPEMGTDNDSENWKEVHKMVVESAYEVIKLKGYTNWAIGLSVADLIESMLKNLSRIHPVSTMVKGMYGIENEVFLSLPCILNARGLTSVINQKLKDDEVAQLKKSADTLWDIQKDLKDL
proteins of HEK293T cells transiently overexpressing caspase-6 (Homo sapiens, UniProt P09211), sequence (P09211 whole entry): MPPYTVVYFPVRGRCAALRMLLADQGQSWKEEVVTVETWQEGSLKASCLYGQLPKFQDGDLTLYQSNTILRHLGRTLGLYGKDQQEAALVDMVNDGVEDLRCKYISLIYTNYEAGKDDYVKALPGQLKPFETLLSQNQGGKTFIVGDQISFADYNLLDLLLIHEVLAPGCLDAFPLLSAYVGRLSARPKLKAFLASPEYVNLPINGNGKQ
proteins of HEK293T cells transiently overexpressing caspase-6 (Homo sapiens, UniProt Q13148), sequence (Q13148 whole entry): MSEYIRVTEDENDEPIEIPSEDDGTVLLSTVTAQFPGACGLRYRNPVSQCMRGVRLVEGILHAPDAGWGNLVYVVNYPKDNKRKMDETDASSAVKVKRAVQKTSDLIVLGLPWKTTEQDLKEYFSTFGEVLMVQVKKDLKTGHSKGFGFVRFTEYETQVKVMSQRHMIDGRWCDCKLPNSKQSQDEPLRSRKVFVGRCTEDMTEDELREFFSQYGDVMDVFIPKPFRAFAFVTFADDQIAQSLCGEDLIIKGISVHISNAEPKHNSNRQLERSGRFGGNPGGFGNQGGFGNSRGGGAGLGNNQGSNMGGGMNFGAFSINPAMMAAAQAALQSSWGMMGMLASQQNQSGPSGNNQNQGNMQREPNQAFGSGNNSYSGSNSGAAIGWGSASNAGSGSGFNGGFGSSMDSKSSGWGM
proteins of HEK293T cells transiently overexpressing caspase-6 (Homo sapiens, UniProt P07737), sequence (P07737 whole entry): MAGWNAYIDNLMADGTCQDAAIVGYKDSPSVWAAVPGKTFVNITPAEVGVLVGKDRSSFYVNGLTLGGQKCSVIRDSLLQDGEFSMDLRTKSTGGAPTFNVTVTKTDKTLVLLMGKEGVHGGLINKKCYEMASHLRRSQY
proteins of HEK293T cells transiently overexpressing caspase-6 (Homo sapiens, UniProt Q9H3N1), sequence (Q9H3N1 27-280): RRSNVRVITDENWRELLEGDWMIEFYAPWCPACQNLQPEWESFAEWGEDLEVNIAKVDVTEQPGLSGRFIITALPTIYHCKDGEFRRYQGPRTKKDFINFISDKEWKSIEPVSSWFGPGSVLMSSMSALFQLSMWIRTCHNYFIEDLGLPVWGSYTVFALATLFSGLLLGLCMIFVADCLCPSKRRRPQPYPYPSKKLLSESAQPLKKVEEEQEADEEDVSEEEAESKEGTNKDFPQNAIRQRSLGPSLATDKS
proteins of HEK293T cells transiently overexpressing caspase-6 (Homo sapiens, UniProt Q96AE4), sequence (Q96AE4 whole entry): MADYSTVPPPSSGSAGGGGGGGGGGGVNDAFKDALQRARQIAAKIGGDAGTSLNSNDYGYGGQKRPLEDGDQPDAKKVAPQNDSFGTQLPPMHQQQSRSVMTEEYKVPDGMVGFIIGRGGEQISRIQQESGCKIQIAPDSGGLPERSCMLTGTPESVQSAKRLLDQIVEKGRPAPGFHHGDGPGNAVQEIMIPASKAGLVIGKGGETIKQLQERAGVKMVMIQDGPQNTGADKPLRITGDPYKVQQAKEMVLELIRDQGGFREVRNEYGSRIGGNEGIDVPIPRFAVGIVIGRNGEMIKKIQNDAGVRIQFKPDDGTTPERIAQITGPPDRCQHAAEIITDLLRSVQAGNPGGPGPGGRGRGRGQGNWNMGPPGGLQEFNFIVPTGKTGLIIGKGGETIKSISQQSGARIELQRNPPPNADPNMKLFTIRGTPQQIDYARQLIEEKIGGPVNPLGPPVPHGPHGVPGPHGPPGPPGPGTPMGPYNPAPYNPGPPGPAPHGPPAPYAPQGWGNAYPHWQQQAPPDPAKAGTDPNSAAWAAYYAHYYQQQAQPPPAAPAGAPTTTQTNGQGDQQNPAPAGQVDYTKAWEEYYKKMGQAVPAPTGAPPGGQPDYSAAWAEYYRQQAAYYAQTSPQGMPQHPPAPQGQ
proteins of HEK293T cells transiently overexpressing caspase-6 (Homo sapiens, UniProt P47756), sequence (P47756 whole entry): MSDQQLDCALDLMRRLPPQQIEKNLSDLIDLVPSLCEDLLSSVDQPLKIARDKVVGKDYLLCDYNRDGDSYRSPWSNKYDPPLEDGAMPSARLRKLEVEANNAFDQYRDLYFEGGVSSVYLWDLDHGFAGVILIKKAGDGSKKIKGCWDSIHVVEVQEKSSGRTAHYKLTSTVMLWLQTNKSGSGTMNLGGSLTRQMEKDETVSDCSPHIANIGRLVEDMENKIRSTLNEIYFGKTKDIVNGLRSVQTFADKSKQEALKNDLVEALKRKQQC
proteins of HEK293T cells transiently overexpressing caspase-6 (Homo sapiens, UniProt Q8NBS9), sequence (Q8NBS9 33-432): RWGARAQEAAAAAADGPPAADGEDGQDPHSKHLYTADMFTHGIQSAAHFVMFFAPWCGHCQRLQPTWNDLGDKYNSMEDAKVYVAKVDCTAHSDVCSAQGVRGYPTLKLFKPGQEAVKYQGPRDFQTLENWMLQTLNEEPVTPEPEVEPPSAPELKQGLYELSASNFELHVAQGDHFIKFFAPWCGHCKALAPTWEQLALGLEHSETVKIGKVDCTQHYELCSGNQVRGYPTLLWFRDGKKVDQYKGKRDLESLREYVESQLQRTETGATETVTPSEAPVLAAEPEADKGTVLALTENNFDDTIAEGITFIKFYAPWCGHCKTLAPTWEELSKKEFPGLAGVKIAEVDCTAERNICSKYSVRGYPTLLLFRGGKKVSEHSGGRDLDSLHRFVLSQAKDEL
proteins of HEK293T cells transiently overexpressing caspase-6 (Homo sapiens, UniProt P43034), sequence (P43034 whole entry): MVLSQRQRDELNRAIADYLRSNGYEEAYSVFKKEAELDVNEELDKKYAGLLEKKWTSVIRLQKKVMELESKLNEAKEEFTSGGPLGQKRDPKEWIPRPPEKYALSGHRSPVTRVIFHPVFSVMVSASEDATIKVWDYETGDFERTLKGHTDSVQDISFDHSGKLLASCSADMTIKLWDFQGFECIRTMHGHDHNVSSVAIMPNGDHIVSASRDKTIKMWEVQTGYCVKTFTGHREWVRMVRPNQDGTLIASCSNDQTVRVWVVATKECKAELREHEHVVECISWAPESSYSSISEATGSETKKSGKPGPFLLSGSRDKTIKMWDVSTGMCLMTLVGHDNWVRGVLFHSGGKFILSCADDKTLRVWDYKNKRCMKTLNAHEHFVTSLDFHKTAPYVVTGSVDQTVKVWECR
proteins of HEK293T cells transiently overexpressing caspase-6 (Homo sapiens, UniProt P26599), sequence (P26599 whole entry): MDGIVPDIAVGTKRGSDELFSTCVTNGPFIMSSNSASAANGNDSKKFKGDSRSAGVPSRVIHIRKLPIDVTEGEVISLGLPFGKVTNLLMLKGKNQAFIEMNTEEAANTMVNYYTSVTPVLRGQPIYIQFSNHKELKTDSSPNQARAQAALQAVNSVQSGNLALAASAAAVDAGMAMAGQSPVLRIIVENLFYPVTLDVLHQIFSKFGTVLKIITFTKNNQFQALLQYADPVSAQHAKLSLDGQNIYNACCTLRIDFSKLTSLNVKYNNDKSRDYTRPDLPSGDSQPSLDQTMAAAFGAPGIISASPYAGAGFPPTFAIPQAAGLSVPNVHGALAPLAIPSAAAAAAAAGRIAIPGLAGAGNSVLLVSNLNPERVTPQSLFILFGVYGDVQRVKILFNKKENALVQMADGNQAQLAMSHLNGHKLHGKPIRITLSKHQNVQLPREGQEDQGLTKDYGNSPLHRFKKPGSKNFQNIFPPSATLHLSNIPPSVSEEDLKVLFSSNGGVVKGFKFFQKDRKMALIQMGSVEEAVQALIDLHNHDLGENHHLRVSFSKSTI

## C#CCOc1ccc([C@@H]2C[C@@H](C(=O)Nc3ccc(OC(F)(F)F)cc3)CN(S(=O)(=O)C=C)C2)cc1 (relative stereo) [13-t]
[1]
  enrich.exp.med: 0.1246
[2]; exp_ref Probe, analysis C6
  enrich.exp.med: 0.8107
[2]
  enrich.exp.med.lin: 1.754
  enrich.exp.med.log2: 0.8107
[3]; Probe, protein LDHB P07195
  enrich.exp.med: -0.537
[3]; protein LDHB (P07195)
  enrich.exp.med.lin: 0.6892
  enrich.exp.med.log2: -0.537
[4]
  enrich.exp.med: -0.1003
[5]
  enrich.exp.med: 0.03311
[6]
  enrich.exp.med: 0.1008
[7]
  enrich.exp.med: -1.169
[8]
  enrich.exp.med: -0.5086
[9]
  enrich.exp.med: 0.04694
[10]
  enrich.exp.med: -0.3557
[11]
  enrich.exp.med: 1.294
[12]; Probe, protein PRDX4 Q13162
  enrich.exp.med: -1.846
[12]; protein PRDX4 (Q13162)
  enrich.exp.med.lin: 0.2781
  enrich.exp.med.log2: -1.846
[13]
  enrich.exp.med: 0.5284
[14]
  enrich.exp.med: -1.073
[15]; exp_ref Probe, analysis C6
  enrich.exp.med: 0.5798
[15]
  enrich.exp.med.lin: 1.495
  enrich.exp.med.log2: 0.5798
[16]
  enrich.exp.med: 2.103
[17]
  enrich.exp.med: -0.5962
